These results are taken from PMC11602115 (Journal of Medicinal Chemistry, 2017).

Data set [1] in a line: Incubation in simulated gastric fluid. The data set is classed as physicochemical. The following applies: room temperature, 3 h. The source says: (§1) A taurine-conjugated metabolite was subsequently identified in bile (M1, Figure 4), which was also observed in circulating plasma, although at much lower concentrations (∼5%) compared to parent. Further, two oxidized products, one of which was also a taurine-conjugate, were identified (M2 and M3) in plasma. […] It is known that taurine can be conjugated to bile acids and these conjugates may be hydrolyzed in the gut which allows for bile acid reabsorbtion.[19]

The nature of data set [2]: Metabolite profile of 5c in the rat. The data set is classed as in vivo. The following applies: rat, after dosing of 5c.
Text: as §1

Data set [3] has as its target T1, IP (Homo sapiens, UniProt P43119). Put plainly: HTRF cAMP assay, recombinant human IP receptor stably expressed in CHO-K1 cells. The data set is classed as cell-based. On the set-up: expressed in transfected cells. On the technique in general: Time-resolved FRET reads energy transfer from a long-lived donor to a nearby acceptor.
Data set [4] has as its target T1, IP. Put plainly: Radioligand binding, human IP ([3H]-iloprost). On the set-up: expressed in transfected cells; host or cells: CHO-K1 (crude membranes). The following applies: Figure 4; read-out: Ki hIP. On the procedure: CHO-K1 cells expressing recombinant IP receptors were harvested, washed with ice-cold phosphate buffered saline, pH 7.4 (PBS), and then centrifuged at 48 000g for 20 min at 4 °C. The resulting cell pellet was then resuspended in ice-cold PBS containing 20 mM HEPES, pH 7.4, and 0.1 mM EDTA, homogenized on ice using a Brinkman Polytron, and centrifuged (48 000g for 20 min at 4 °C). This resuspension and centrifugation process was repeated one further time. Crude membrane pellets were stored at −80 °C until used for radioligand binding assays.
Assay incubations were terminated by rapid filtration through PerkinElmer GF/C filtration plates pretreated with 0.3% PEI, under vacuum pressure using a 96-well Packard filtration apparatus, followed by multiple washes with ice-cold wash buffer (PBS containing 20 mM HEPES and 0.1 mM EDTA, pH 7.4). Plates were then dried at 45 °C for a minimum of 2 h. Finally, 25 μL of BetaScint scintillation cocktail was added to each well and plates were counted in a Packard TopCount scintillation counter. In each competition study, test compounds were dosed at 10 concentrations with triplicate determinations at each test concentration.

Data set [5] has as its target T2, human DP1 receptor (Homo sapiens, UniProt Q13258).
T2 construct: expressed in transfected cells
T2 sequence (Q13258 1-359): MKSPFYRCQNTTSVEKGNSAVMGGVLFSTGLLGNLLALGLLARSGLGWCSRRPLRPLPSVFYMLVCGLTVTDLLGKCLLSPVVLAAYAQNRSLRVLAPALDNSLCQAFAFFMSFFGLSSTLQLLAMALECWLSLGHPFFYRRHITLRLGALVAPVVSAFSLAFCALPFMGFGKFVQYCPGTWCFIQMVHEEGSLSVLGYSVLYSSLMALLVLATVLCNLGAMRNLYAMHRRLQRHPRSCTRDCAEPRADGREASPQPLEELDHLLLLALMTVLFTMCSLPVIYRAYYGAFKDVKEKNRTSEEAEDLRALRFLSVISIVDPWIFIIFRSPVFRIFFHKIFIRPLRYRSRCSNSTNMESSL
The following applies: earlier series; cited from earlier work.

T1 sequence (P43119 whole entry): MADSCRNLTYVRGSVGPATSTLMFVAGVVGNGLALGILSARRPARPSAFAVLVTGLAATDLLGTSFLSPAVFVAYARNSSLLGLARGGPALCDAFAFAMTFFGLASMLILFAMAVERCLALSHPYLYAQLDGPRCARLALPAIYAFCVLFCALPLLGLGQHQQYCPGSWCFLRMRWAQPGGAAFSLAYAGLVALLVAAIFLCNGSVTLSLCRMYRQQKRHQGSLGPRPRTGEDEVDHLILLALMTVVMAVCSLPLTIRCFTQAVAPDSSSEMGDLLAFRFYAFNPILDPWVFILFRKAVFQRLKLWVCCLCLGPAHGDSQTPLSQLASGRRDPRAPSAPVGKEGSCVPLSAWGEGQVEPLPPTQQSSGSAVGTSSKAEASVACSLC

Usually EC50 stands for the concentration at which the effect is half-maximal. A word on the Ki: it is the dissociation constant of the complex between target and ligand, obtained from inhibition or displacement. On to `O=C(COC[C@H]1CC[C@H](COC(=O)N(c2ccccc2)c2ccc(Cl)cc2)CC1)NCCS(=O)(=O)O` [M1, 2-(2-(((1r,4r)-4-(((4-Chlorophenyl)(phenyl)carbamoyloxy)methyl)cyclohexyl)methoxy)acetamido)ethanesulfonic Acid], for which the “chemical degradation to the parent in simulated gastric fluid” value in data set [1] is listed as “little chemical degradation”. Moreover, in data set [2], the “concentration in circulating plasma compared to parent” value is reported as ~5%. Further, the Emax in data set [3] (CHO-K1, read-out: hIP % IA) stood at 76%. Also, in data set [3] (HTRF (cAMP) human IP receptor assay, mean of at least three determinations), the EC50 is 930 nM. Also, the Ki in data set [4] turned out to be 400 nM.

`O=C(O)COc1cccc2c1CC[C@H](Cn1ncc(-c3cccc(F)c3F)c(-c3ccc(F)cc3)c1=O)C2` [compound 3]: the “IP to DP1 selectivity ratio” value in data set [5] was 8 fold.
